Columns and labels:
[1] = Stability of compounds in human liver microsomes; type: in vitro ADME; conditions: for CLint scaled at 0.5 μM / half-life at 0.5 μM: both sexes, pH 7.4; for CLint scaled at 0.5 μM: liver microsomes, calculated from HLM half-life, read-out: HLM Scaled Intrinsic Clearance; for CLint scaled at 0.5 μM / Predicted Max. Bioavailability (% F) / HLM Predicted Systemic Clearance: human; for half-life at 0.5 μM: 0.5 μM compound, 0.5 mg/mL human liver microsomes, 37° C., maxed at 420 minutes, read-out: HLM Elimination half-life (t1/2, min); for Predicted Max. Bioavailability (% F): predicted from HLM data; for HLM Predicted Systemic Clearance: scaled from HLM half-life (Obach method)
How it was run: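 Compound at 0.5 μM incubated at 37 °C with pooled mixed-gender human liver microsomes (0.5 mg/mL protein) and an NADPH-generating system in pH 7.4 phosphate buffer, sampled 0–60 min. Parent depletion tracked by LC-MS/MS; t1/2 derived from the slope by non-linear regression, with predicted extraction ratio and maximum bioavailability also calculated.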

male Sprague-Dawley rats = assay: Open-field hypolocomotion / locomotor activity (LMA) assay; type: in vivo; conditions: Rattus norvegicus, pre-treatment 60 or 120 minutes, beam breaks in 30 min, read-out: ED50, reduction of locomotor activity
Protocol: The effect of VMAT2 inhibitors on dopamine depletion was measured using the locomotor activity (LMA) assay. Following a pre-treatment time of 60 or 120 minutes, male Sprague-Dawley rats (200-250 g) were placed in a clear cage surrounded by photocell detectors (San Diego Instruments). Rat locomotor activity was detected by breaks in the photocell beams and activity is defined as the number of beam breaks in 30 min. Data was analyzed by one-way analysis of variance (ANOVA; SigmaStat version 3.0.1, SPSS, Chicago, Ill.) followed by the Student Newman Keuls post-hoc test for significance.

male Wistar rats = assay: Conditioned avoidance response (CAR) assay of antipsychotic activity; type: in vivo, rat
Protocol: Animals: Adult male Wistar rats from Envigo (Indianapolis, Ind.) were used in this study. Rats were received at approximately 150 g, assigned unique identification numbers and group housed 2-3 per cage in ventilated cages. All rats were examined, handled, and weighed prior to initiation of the study to assure adequate health and suitability. During the course of the study, 12/12 light/dark cycles were maintained. The RT was maintained between 20° C. and 23° C. with a relative humidity around 50%. Chow and water were provided ad libitum for the duration of the study. All testing was conducted during the light cycle of the rats.
Compound 4-1 (0.03, 0.1, 0.3, and 1 mg/kg) was formulated in 0.25% methyl cellulose and administered orally at a dose volume of 3 mL/kg 120 minutes prior to test.
Compound 4-15 (0.03, 0.1, 0.3, and 1 mg/kg) was formulated in 0.25% methyl cellulose and administered orally at a dose volume of 3 mL/kg 120 minutes prior to test.
In the CAR paradigm, an animal is trained to respond to a conditioned stimulus (auditory and visual) by negative reinforcement (foot shock). Numerous studies have shown that typical and atypical antipsychotic drugs selectively suppress CAR, thus making it an ideal assay to screen potential antipsychotic compounds (Wadenberg & Hicks, Neuroscience and Biobehavioral Reviews, (1999) 23:851-862).
Rats were placed in the CAR two-way shuttle box and the training period of 20 trials ensued. A trial consisted of a 10-sec presentation of an 80 dB white noise followed by a scrambled 0.6 mA foot shock lasting up to 20 sec. The inter-trial interval ranged from 20-60 sec. The rat learned to avoid shock by moving from one compartment to the other when the cue is presented. […] The following measures were captured from the assay:
Avoidance response: If the rat moved from one compartment to the other during the cued-stimulus (CS) presentation. Decreased avoidance responding is the typical signature of an efficacious dose of an antipsychotic.
Avoidance response data were expressed as the number of avoidance responses as well as percent of avoidance responses based on the three baseline responses prior to drug test. Escape failures were expressed as the total number of failures during the test session.
Body weight and avoidance data were analyzed by analysis of variance (ANOVA) followed by Dunnett's post-hoc comparisons when appropriate. Escape failures were analyzed by Kruskal-Wallis nonparametric analysis followed by Dunn's post hoc comparisons when appropriate. Results are reported as mean SEM. An effect was considered statistically significant if p<0.05.

human VMAT2 = human VMAT2 (Homo sapiens (Human), UniProt Q05940); assay: VMAT2 radioligand binding, 3H-dihydrotetrabenazine competition on human platelet homogenate; conditions: 10 nM 3H-dihydrotetrabenazine, human platelet homogenate, 25° C., 90 minutes; read-out: VMAT2 Ki
human VMAT2, sequence (Q05940 whole entry): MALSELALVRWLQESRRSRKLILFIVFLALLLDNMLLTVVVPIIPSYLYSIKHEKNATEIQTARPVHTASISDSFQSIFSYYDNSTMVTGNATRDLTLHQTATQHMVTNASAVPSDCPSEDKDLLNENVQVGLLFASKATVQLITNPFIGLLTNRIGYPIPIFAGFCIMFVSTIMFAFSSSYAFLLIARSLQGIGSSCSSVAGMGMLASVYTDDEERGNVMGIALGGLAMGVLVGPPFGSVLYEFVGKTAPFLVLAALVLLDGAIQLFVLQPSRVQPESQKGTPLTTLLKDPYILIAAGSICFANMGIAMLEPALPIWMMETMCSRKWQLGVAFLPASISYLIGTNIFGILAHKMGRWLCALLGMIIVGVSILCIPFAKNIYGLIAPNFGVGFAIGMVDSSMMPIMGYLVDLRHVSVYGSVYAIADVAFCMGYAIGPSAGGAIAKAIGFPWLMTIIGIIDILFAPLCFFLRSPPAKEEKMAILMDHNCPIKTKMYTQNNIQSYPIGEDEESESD
How it was run: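 Human platelet homogenate (30 μg membrane protein/well) in DPBS with 1 mM EDTA, pH 7.4; twelve test-compound concentrations competed against 10 nM ³H-dihydrotetrabenazine. Incubated 90 min at 25 °C, bound radioligand collected by filtration on PEI-pretreated glass-fibre filters and counted by scintillation; Ki derived.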

Structure (SMILES) | CLint scaled at 0.5 μM [1] [mL/min/kg] | half-life at 0.5 μM [1] [min] | Predicted Max. Bioavailability (% F) [1] [% F] | HLM Predicted Systemic Clearance [1] [mL/min/kg] | ED50 (male Sprague-Dawley rats) [mg/kg] | Avoidance and escape failures (male Wistar rats; 0.3 mg/kg, oral, Wistar rats) | ED50 (male Wistar rats; Rattus norvegicus, read-out: ED50, conditioned avoidance response) [mg/kg] | Ki (human VMAT2) [nM]
COc1cc2c(cc1OCC(F)(F)F)CCN1C[C@@H](CC(C)(C)C)[C@H](O)C[C@H]21 [Compound 4-1, (2R,3R,11bR)-3-(2,2-dimethylpropyl)-10-methoxy-9-(2,2,2-trifluoroethoxy)-1H,2H,3H,4H,6H,7H,11bH-pyrido[2,1-a]isoquinolin-2-ol] | ≤ 2.97 | ≥ 420 | ≥87 | ≤2.59 | 0.24 | reduction in avoidance without significant increase in escape failures | 0.55 | 2.4
COc1cc2c(cc1OC1CC1)CCN1C[C@@H](CC(C)(C)C)[C@H](O)C[C@H]21 [Compound 4-27, (2R,3R,11bR)-9-cyclopropoxy-3-(2,2-dimethylpropyl)-10-methoxy-1H,2H,3H,4H,6H,7H,11bH-pyrido[2,1-a]isoquinolin-2-ol] | ≤ 2.97 | ≥ 420 | ≥87 | ≤2.59 | 0.14 | – | – | 1
COc1cc2c(cc1OCC1(F)CC1)CCN1C[C@@H](CC(C)(C)C)[C@H](O)C[C@H]21 [Compound 4-31, (2R,3R,11bR)-3-(2,2-dimethylpropyl)-9-[(1-fluorocyclopropyl)methoxy]-10-methoxy-1H,2H,3H,4H,6H,7H,11bH-pyrido[2,1-a]isoquinolin-2-ol] | ≤ 2.97 | ≥ 420 | ≥87 | ≤2.59 | 0.31 | – | – | 1.6
COc1cc2c(cc1OC[C@H](O)C(F)(F)F)CCN1C[C@@H](CC(C)(C)C)[C@H](O)C[C@H]21 [Compound 4-50, (2R,3R,11bR)-3-(2,2-dimethylpropyl)-10-methoxy-9-[(2S)-3,3,3-trifluoro-2-hydroxypropoxy]-1H,2H,3H,4H,6H,7H,11bH-pyrido[2,1-a]isoquinolin-2-ol] | ≤ 2.97 | ≥ 420 | ≥87 | ≤2.59 | 0.21 | – | – | 1.4
COc1cc2c(cc1OC[C@@H](C)O)CCN1C[C@@H](CC(C)(C)C)[C@H](O)C[C@H]21 [Compound 4-55, (2R,3R,11bR)-3-(2,2-dimethylpropyl)-9-[(2R)-2-hydroxypropoxy]-10-methoxy-1H,2H,3H,4H,6H,7H,11bH-pyrido[2,1-a]isoquinolin-2-ol] | ≤ 2.97 | ≥ 420 | ≥87 | ≤2.59 | 0.29 | – | – | 4.8
COc1cc2c(cc1OCCCCC(F)(F)F)CCN1C[C@@H](CC(C)(C)C)[C@H](O)C[C@H]21 [Compound 4-115, (2R,3R,11bR)-3-(2,2-dimethylpropyl)-10-methoxy-9-[(5,5,5-trifluoropentyl)oxy]-1H,2H,3H,4H,6H,7H,11bH-pyrido[2,1-a]isoquinolin-2-ol] | 9.38 | 133 | 68 | 6.39 | – | – | – | 6.1
COc1cc2c(cc1OCc1cccc(C#N)c1)CCN1C[C@@H](CC(C)(C)C)[C@H](O)C[C@H]21 [Compound 4-116, 3-({[(2R,3R,11bR)-3-(2,2-dimethylpropyl)-2-hydroxy-10-methoxy-1H,2H,3H,4H,6H,7H,11bH-pyrido[2,1-a]isoquinolin-9-yl]oxy}methyl)benzonitrile] | 21.8 | 57 | 48 | 10.44 | – | – | – | 56
COc1cc2c(cc1OCCc1ccc(F)cc1)CCN1C[C@@H](CC(C)(C)C)[C@H](O)C[C@H]21 [Compound 4-117, (2R,3R,11bR)-3-(2,2-dimethylpropyl)-9-[2-(4-fluorophenyl)ethoxy]-10-methoxy-1H,2H,3H,4H,6H,7H,11bH-pyrido[2,1-a]isoquinolin-2-ol] | 112 | 11 | 15 | 16.98 | – | – | – | 2.2
COc1cc2c(cc1OCC1(F)CC1)CCN1C[C@@H](CC(C)(C)C)[C@@H](O)C[C@H]21 [Compound 4-118, (2S,3R,11bR)-3-(2,2-dimethylpropyl)-9-[(1-fluorocyclopropyl)methoxy]-10-methoxy-1H,2H,3H,4H,6H,7H,11bH-pyrido[2,1-a]isoquinolin-2-ol] | 6.6 | 189 | 75 | 4.96 | – | – | – | 13
COc1cc2c(cc1OCC1CCC1)CCN1C[C@@H](CC(C)(C)C)[C@H](O)C[C@H]21 [Compound 4-119, (2R,3R,11bR)-9-(cyclobutylmethoxy)-3-(2,2-dimethylpropyl)-10-methoxy-1H,2H,3H,4H,6H,7H,11bH-pyrido[2,1-a]isoquinolin-2-ol] | 134 | 9 | 13.00 | 17.4 | – | – | – | 0.29
COc1cc2c(cc1OCCCC(F)(F)F)CCN1C[C@@H](CC(C)(C)C)[C@H](O)C[C@H]21 [Compound 4-120, (2R,3R,11bR)-3-(2,2-dimethylpropyl)-10-methoxy-9-(4,4,4-trifluorobutoxy)-1H,2H,3H,4H,6H,7H,11bH-pyrido[2,1-a]isoquinolin-2-ol] | ≤ 2.97 | ≥ 420 | ≥87 | ≤2.59 | – | – | – | 1.5
COc1cc2c(cc1OCC1CC1(F)F)CCN1C[C@@H](CC(C)(C)C)[C@H](O)C[C@H]21 (stereo partly drawn) [Compound 4-121, (2R,3R,11bR)-9-[(2,2-difluorocyclopropyl)methoxy]-3-(2,2-dimethylpropyl)-10-methoxy-1H,2H,3H,4H,6H,7H,11bH-pyrido[2,1-a]isoquinolin-2-ol] | 4.46 | 280 | 82 | 3.64 | – | – | – | 0.82
COc1cc2c(cc1OC)[C@H]1C[C@@H](O)[C@H](CC(C)(C)C)CN1CC2 [Compound 5-1, (2R,3R,11bR)-3-(2,2-dimethylpropyl)-9,10-dimethoxy-1H,2H,3H,4H,6H,7H,11bH-pyrido[2,1-a]isoquinolin-2-ol] | 15.6 | 80 | 56 | 8.77 | – | – | – | 6.6
COc1cc2c(cc1OC)[C@H]1C[C@H](O)[C@H](CC(C)(C)C)CN1CC2 [Compound 5-2, (2S,3R,11bR)-3-(2,2-dimethylpropyl)-9,10-dimethoxy-1H,2H,3H,4H,6H,7H,11bH-pyrido[2,1-a]isoquinolin-2-ol] | 32.6 | 38 | 38 | 12.39 | – | – | – | 50
